EP0028063A1, “Phenol derivatives, processes for their preparation and pharmaceutical compositions containing them” (GLAXO GROUP LIMITED, priority 1979, dated 1981)

Experiments:
SRS-A = test: Antagonism of the action of SRS-A on guinea-pig isolated ileum (method of Coleman et al.; pA2 by Arunlakshana and Schild); format: cell-based; settings: Cavia porcellus, SRS-A induced contraction, compounds tested at concentrations of 10^-6 M
Text: The compounds according to the invention are potent antagonists of the action of slow reacting substance of anaphylaxis (SRS-A) as shown by their ability to inhibit the SRS-A induced contraction of guinea pig ileum (Coleman et al, Br. J. Pharmacol., 1979, 66, 83P). SRS-A is a naturally occurring substance which causes contraction of smooth muscle, especially bronchial muscle, and increases vascular permeability. The substance is not normally present in human tissue but is synthesised and released from certain cells during an allergic reaction. The compounds according to the invention are thus indicated for use in the treatment of disorders in which SRS-A may be a factor, for example, in obstructive airways diseases such as asthma, in hay fever and in skin afflictions.
The ability of the compounds to act as antagonists of the action of SRS-A was shown using guinea-pig isolated ileum according to the methods of Coleman et al, Br. J. Pharmacol., (1979), 66, 83P. Compounds were tested at concentrations of 10^-6 M and pA2 values were determined using the standard procedures of Arunlalkshana and Schild, Br. J. Pharmac.

dogs = test: Oral tolerability in dogs; format: in vivo; settings: given orally to dogs at doses of up to 10 mg/kg
Text: The compounds are in general non-toxic at therapeutically useful doses.

Structure (SMILES)	Kb (SRS-A)	adverse effects (dogs)
CCCc1c(OCCCOc2ccc(OCC(=O)O)cc2)ccc(C(C)=O)c1O [Example 1g]	100 nM	
CCCc1c(OCCCOc2cccc(C=CC(=O)O)c2)ccc(C(C)=O)c1O [Example 2a, 3-[3-[3-(4-Acetyl-3-hydroxy-2-propylphenoxy)propoxy]-phenyl]-2-propenoic acid]	39.8 nM	no adverse effects
CCCc1c(OCCCOc2ccc(C(=O)O)c(O)c2CCC)ccc(C(C)=O)c1O [Example 2c, 4-(3-(4-Aceltyl-3-hydroxy-2-propylphenoxy)propoxy] -2-hydroxy-3-propylbenzoic acid]	39.8 nM	
CCCc1c(OCCCCCOc2cccc(C=CC(=O)O)c2)ccc(C(C)=O)c1O [Example 4b, 3-[3-[5-(4-Acetyl-3-hydroxy-2-propylphenoxy)pentyloxy]phenyl]-2-propenoic acid]	50.1 nM	
CCCc1c(OCCCOc2cccc(CCC(=O)O)c2)ccc(C(C)=O)c1O [Example 5, 3-[3-(4-Acetyl-3-hydroxy-2-propylphenoxy)propoxy]bepzene propanoic acid]	50.1 nM	no adverse effects
CCCc1c(OCCCOc2ccc(C(=O)O)c(O)c2)ccc(C(C)=O)c1O [Example 8, 4-[3-(4-Acetyl-3-hydroxy-2-propylphcnoxy)propoxy]-2-hydroxybenzoic acid]	15.8 nM	no adverse effects
CCCc1c(OCCCOc2cc(C=CC(=O)O)ccc2[N+](=O)[O-])ccc(C(C)=O)c1O [Example 9b, 3-[3-[3-[4-Acetyl-3-hydroxy-2-propylphenoxy]propoxy]-4-nitrophenyl]-2-propenoic acid]	31.6 nM	
CCCc1c(OCCCOc2cccc(-c3nn[nH]n3)c2)ccc(C(C)=O)c1O [Example 10b, 5-[3-[3-[4-Acetyl-3-hydroxy-2-propylphenoxy]propoxy]-phenyl]-lH-tetrazole]	79.4 nM	
